These results are taken from patent US20110313044A1, “Polymorphs of Suberoylanilide Hydroxamic Acid” (URQUIMA S.A., priority 2010, published 2011).

A short description of series [1]: physchem. As to conditions: thermodynamic from solid.
Series [2] in a line: Physical stability of crystalline forms at room temperature (PXRD, DSC characterisation).
From the text: The crystalline products obtained have been characterised by XPRD (FIG. 1 and Table 1) and DSC (FIG. 2).
A short description of series [3]: Solubility test Form α vs Form I. As to conditions: for solubility: thermodynamic from solid.
Series [4] is described as follows: Hygroscopicity test. In kind it is physicochemical.

≈ marks a conversion by molar mass, not a printed value.

Broadly, the solubility is how much of the substance goes into solution per volume. In the case of `O=C(CCCCCCC(=O)Nc1ccccc1)NO` [Form I, suberoylanilide hydroxamic acid], the solubility in series [1] (aqueous buffer) is 0.1 mg/mL (≈ 0.378 mM); in series [1] (organic solvent or mixture), 21.8 mg/mL (≈ 82.5 mM).
Turning to `O=C(CCCCCCC(=O)Nc1ccccc1)NO` [Form II, suberoylanilide hydroxamic acid], the Polymorph stability entry in series [2] was “unstable at room temperature”.
As for `O=C(CCCCCCC(=O)Nc1ccccc1)NO` [Form III, suberoylanilide hydroxamic acid], in series [2], the Polymorph stability entry is “stable at room temperature”.
With `O=C(CCCCCCC(=O)Nc1ccccc1)NO` [Form α, suberoylanilide hydroxamic acid], the solubility in series [3] (HCl 2M, aqueous buffer) came to 0.19 mg/mL (≈ 0.719 mM); in series [3] (methanol, organic solvent or mixture) it was 30 mg/mL (≈ 113 mM). Moreover, the “Solubility versus Form I” value in series [3] (methanol and HCl 2M, in words) was “higher solubility”. Besides, the Hygroscopicity entry in series [4] is “non-hygroscopic”. Moreover, in series [2], the Polymorph stability result is on record as “stable at room temperature”.
